Data as given in patent publication US9434687B2, “Detection of synthetic cannabinoids” (priority 2011, dated 2016).
Like-named read-outs stand apart in the source and are kept apart here.

Key:
Type in all cases: binding, sheep
[1] = system: IgG fraction of antiserum raised to Immunogen I; conditions: Antibody to Immunogen I, cross-reactants at 100 ng/ml, 1000 ng/ml, standard JWH-018
Protocol: (§1) An aqueous solution of each immunogen was formulated with Freund's Complete Adjuvant (FCA) to form an emulsion consisting of 2 mg/ml*immunogen in 50% (v/v) FCA. Three sheep were immunised with this emulsion (1° immunisation), 0.25 ml being intramuscularly injected at each of four sites in the flank of each animal. Subsequent immunizations (boosts) contained 1 mg/ml*immunogen. All boosts were emulsified in 50% (v/v) Freund's Incomplete Adjuvant (FIA) and were administered in the same manner as the 1° immunisation, at monthly intervals. Blood sampling took place 7 to 14 days after each boost. *The general procedure for immunogen administration is outlined above, however, it was necessary to deviate from this protocol in some cases, due to reduced immunogen concentrations (Immunogens II, IV, VII and VIII) and/or amount available (Immunogen VIII). Any deviations from the protocol described are outlined in Table 5 below and highlighted in bold.
(§2) The wells of an enhanced binding 96 well polystyrene microtiter plate were coated with IgG fraction of antiserum raised to Immunogen I or II, diluted in 10 mM Tris, pH8.5 (125 μl/well). The appropriate antibody coating dilution was determined using standard ELISA checkerboard techniques. The plate was incubated overnight at 4° C., washed 4 times over 10 minutes with Tris buffered saline containing Tween 20 (TBST) and tapped dry. Standard solutions (JWH-018 for Immunogens I and II) were applied at 0, 0.625, 1.25, 2.5, 5, 10, 20 and 40 ng/ml and 50 μl of each was added to the appropriate wells. 75 μl of conjugate (appropriate hapten-HRP) diluted in Tris buffer (pH 7.2) containing EDTA, D-mannitol, sucrose, thimerosal and BSA, was added to each of the wells. The appropriate dilution of conjugate was also determined using standard ELISA checkerboard techniques. The plate was incubated at 25° C. for 1 hour. Excess unbound conjugate was removed by washing 6 times over a 10 minute period with TBST. 125 μl of tetramethylbenzidine (TMB) substrate solution was added to each well of the plate that was then incubated for 20 minutes in the dark at room temperature. The reaction was terminated by addition of 125 μl 0.2M H2SO4 to each well. The absorbance was then measured at 450 nm using a microtiter plate reader. The data are inputted to a computer program called ‘KC Junior’. It is a 4 parameter fit curve and allow the calculation of concentrations between the standard runs. This program is used to calculate the IC50s by dividing the 0 ng/ml OD value by 2 and obtaining the concentration value from the curve for this OD.
In a similar manner to that described above, the wells of a 96-well microtiter plate were coated with the IgG fraction of the antiserum raised to Immunogens I or II. Standard solutions (JWH-018 for Immunogen I and II) were applied at 0, 0.625, 1.25, 2.5, 5, 10, 20 and 40 ng/ml and conjugate was employed as detection reagent.
(§3) The data set out in Tables 7-10 are generated using antibodies raised against the indicated Immunogens in a competitive binding assay with the indicated tracers, using the indicated standards
(§4) In order to determine the specificity of the competitive ELISAs, standard solutions of a range of structurally similar synthetic cannabinoids and their metabolites were prepared in TBST.
(§5) Using the calibration curves generated and employing a single level of cross reactants, these were used to determine the cross-reactivity of each immunoassay with these substances. These are the standards used for the IC50 and cross-reactivity data generation: […]

[2] = system: IgG fraction of antiserum raised to Immunogen VII; conditions: Antibody to Immunogen VII, cross-reactants at 100 ng/ml, 1000 ng/ml, standard JWH-015
Protocol: as §1, §2
(§6) In a similar manner to that described above, the wells of a 96-well microtiter plate were coated with the IgG fraction of the antiserum raised to Immunogens IV, VII or VIII. Standard solutions (JWH-018 for Immunogens IV and VIII, JWH-015 for Immunogen VII) were prepared in TBST at 0, 1.25, 2.5, 5, 10, 20, 40 and 80 ng/ml and conjugate was employed as detection reagent.
as §3, §4, §5

[3] = system: IgG fraction of antiserum raised to Immunogen VIII; conditions: Antibody to Immunogen VIII, cross-reactants at 100 ng/ml, 1000 ng/ml, standard JWH-018
Protocol: as §1, §2, §6, §3, §4, §5

[4] = system: IgG fraction of antiserum raised to Immunogen IV; conditions: Antibody to Immunogen IV, cross-reactants at 100 ng/ml, 1000 ng/ml, standard JWH-018
Protocol: as §1, §2, §6, §3, §4, §5

SMILES	% B/B0 [1]	% B/B0 [2]	% B/B0 [3]	% B/B0 [4]	% B/B0 ([1]; listed as JWH-164)	% B/B0 ([2]; listed as JWH-164)	% B/B0 ([3]; listed as JWH-164)	% B/B0 ([4]; listed as JWH-164)
CCCCCn1cc(C(=O)Cc2ccccc2OC)c2cc(O)ccc21 [JWH 250 5-hydroxyindole metabolite]	100.75%	99.88%	67.19%	84.05%				
COc1ccccc1CC(=O)c1cn(CCCCCC(=O)O)c2ccccc12 [JWH 250 N-(5-carboxypentyl) metabolite]	86.21%	97.60%	89.30%	89.88%				
COc1ccccc1CC(=O)c1cn(CCCCCO)c2ccccc12 [JWH 250 N-(5-hydroxypentyl) metabolite]	75.47%	96.13%	42.79%	76.22%				
CCCCCn1cc(C(=O)Cc2cccc(C)c2)c2ccccc21 [JWH 251 3-methylphenyl isomer]	85.90%	99.32%	8.97%	51.15%				
CCCCCC(C)n1c(C)c(C(=O)c2cccc3ccccc23)c2ccccc21 (stereo not shown) [JWH-011]	62.13%	57.43%	97.49%	99.19%				
CCCCCn1ccc(C(=O)c2cccc3ccccc23)c1 [JWH-030]	61.17%	89.66%	94.25%	93.17%				
CCCCn1cc(C(=O)c2ccc(C)c3ccccc23)c2ccccc21 [JWH-073 4-methylnaphthyl analogue]	45.54%	78.36%	19.75%	7.01%				
CCCCCn1cc(C(=O)c2c(OC)ccc3ccccc23)c2ccccc21 [JWH-081 2-methoxynaphthyl isomer]	69.58%	83.43%	58.20%	27.67%				
CCCCCn1cc(C(=O)c2cccc3ccc(OC)cc23)c2ccccc21 [JWH-081 7-methoxynaphthyl isomer]	88.26%	97.60%	59.51%	39.20%	91.86%	96.13%	57.93%	36.14%
COc1ccc(C(=O)c2cn(CCCCCO)c3ccccc23)c2ccccc12 [JWH-081 N-(5-hydroxypentyl) metabolite]	61.86%	89.31%	47.16%	26.31%				
CCCCCn1c(C)c(C(=O)c2ccc(OC)c3ccccc23)c2ccccc21 [JWH-098]	77.58%	82.85%	59.80%	44.03%				
CCCC(C)(C)c1ccc2c(c1)OC(C)(C)[C@@H]1CC=C(C)C[C@@H]21 [JWH-133]	100.56%	101.84%	100.00%	98.18%				
CCCCCn1cc(C(=O)c2ccc(CCC)c3ccccc23)c2ccccc21 [JWH-182]	107.08%	98.40%	30.65%	12.83%				
O=C(c1ccc2ccccc2c1)c1cn(CCN2CCOCC2)c2ccccc12 [JWH-200 2′-naphthyl isomer]	28.57%	94.65%	96.12%	92.29%				
CCCCCn1cc(C(=O)Cc2ccc(OC)cc2)c2ccccc21 [JWH-201]	77.14%	100.25%	8.26%	59.03%				
